Assay results published in patent publication US20250049800A1, “VCP/p97 INHIBITOR FOR THE TREATMENT OF CANCER” (CASI Pharmaceuticals, Inc., priority 2021, published 2025).

Assays:
Assay in all cases: Cell Titer-Glo viability: single agent IC50 and Compound 1 + PARP inhibitor matrix (Bliss)
Type in all cases: cell-based
[1] = test system: OVCAR-8 (Ovary); details: Homo sapiens, 72 h, single agent, read-out: Absolute IC50
Protocol: (§1) The PARP inhibitors used for the study were talazoparib, olaparib and niraparib. […] was used as a reference control. […] For each drug agent on its own, IC50 values in each cell line were determined. Interactions of the combinations of Compound 1 and each PARP inhibitor was assessed as follows: […] Cisplatin and culture media were used as positive and negative control, respectively. The combination activities were assessed using CrownSyn software to determine synergy scores by Bliss Independence and Loewe additivity methods. […] Synergy scores calculated by both Bliss independence model and Loewe additivity model (see Greco, […]., Poch, G., Suhnel, J., Kundi, M., & Bodeker, W. (1992). Consensus on concepts and terminology for combined-action assessment: the […] agreement. […] Without being bound by theory, the Bliss independence model is often applied to asses synergy for non-interacting drugs that elicit their responses independently, e.g., by targeting separate pathways, whereas the Loewe additivity model may be more compatible where both drugs have similar modes of action on the same targets or pathways.

[2] = test system: DU4475 (Breast); details: Homo sapiens, DU-4475, 72 h, single agent, read-out: Absolute IC50
Protocol: as §1

[3] = test system: SK-OV-3 (Ovary); details: Homo sapiens, single agent, read-out: Absolute IC50
Protocol: as §1

[4] = test system: HCC1395 (Breast); details: Homo sapiens, 72 h, single agent, read-out: Absolute IC50
Protocol: as §1

[5] = test system: Capan-1 (Pancreas); details: Homo sapiens, 72 h, single agent, read-out: Absolute IC50
Protocol: as §1

[6] = test system: HCC1806 (Breast); details: Homo sapiens, 72 h, single agent, read-out: Absolute IC50
Protocol: as §1

Cc1cc2c(C(N)=O)cccc2n1-c1nc2c(c(NCc3ccccc3)n1)CCCN2 [Compound 1, 1-(4-(benzylamino)-5,6,7,8-tetrahydropyrido[2,3-d]pyrimidin-2-yl)-2-methyl-1H-indole-4-carboxamide]
IC50 [1]: 0.2 µM
IC50 [2]: 0.343 µM
IC50 [3]: 1.79 µM
IC50 [4]: 0.201 µM
IC50 [5]: 0.405 µM
IC50 [6]: 0.437 µM
